Laboratory results reported in ChEMBL document CHEMBL1140260, “Synthesis and SAR of diazepine and thiazepine TACE and MMP inhibitors” (Bioorg Med Chem Lett, 2005).

What was measured:
[1] = biological target: Disintegrin and metalloproteinase domain-containing protein 17 (Homo sapiens, UniProt P78536); test: Inhibitory concentration against TNF-alpha converting enzyme at 1 uM
Collagenase 3 = Collagenase 3 (Homo sapiens, UniProt P45452)
Description: Inhibitory concentration against Matrix metalloprotease-13 at 1 uM

THP-1 [2] = test: Percent inhibition against LPS stimulated THP-1 cellular assay at 1 uM; type: functional; settings: Homo sapiens
Interstitial collagenase = biological target: T1, Interstitial collagenase (Homo sapiens, UniProt P03956); test: Inhibitory concentration against matrix metalloprotease-1 at 1 uM
T1 sequence (P03956 whole entry): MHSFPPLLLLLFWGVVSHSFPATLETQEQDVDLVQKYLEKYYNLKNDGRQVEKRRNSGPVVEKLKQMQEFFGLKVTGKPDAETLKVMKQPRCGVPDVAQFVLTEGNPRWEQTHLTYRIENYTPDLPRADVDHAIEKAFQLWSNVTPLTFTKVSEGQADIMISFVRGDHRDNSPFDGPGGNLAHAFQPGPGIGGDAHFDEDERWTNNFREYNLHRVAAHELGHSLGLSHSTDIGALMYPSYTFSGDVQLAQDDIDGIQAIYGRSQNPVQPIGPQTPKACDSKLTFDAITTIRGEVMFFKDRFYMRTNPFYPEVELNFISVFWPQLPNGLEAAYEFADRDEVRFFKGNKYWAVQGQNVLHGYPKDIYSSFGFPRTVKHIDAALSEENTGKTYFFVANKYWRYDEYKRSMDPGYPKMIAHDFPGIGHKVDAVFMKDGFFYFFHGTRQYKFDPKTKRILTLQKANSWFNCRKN

Mus musculus [3] = test: Percent inhibition ofTNF-alpha release 6 hr after oral dosing at 50 mpk; type: functional
Mus musculus [4] = test: Percent inhibition ofTNF-alpha release 1 hr after oral dosing at 50 mpk; type: functional
Mus musculus [5] = test: Percent inhibition ofTNF-alpha release 1 hr after oral dosing at 25 mpk; type: functional
THP-1 [6] = test: Percent inhibition against LPS stimulated THP-1 cellular assay at 3 uM; type: functional; settings: Homo sapiens
[7] = biological target: T2, Interstitial collagenase (Homo sapiens) (UniProt P03956); test: Percent inhibition against matrix metalloprotease-1 at 1 uM
T2 sequence (whole entry): T1 sequence (P03956 whole entry)

Chain of Disintegrin and metalloproteinase domain-containing protein 17 (P78536 whole entry, the tested form may be a part): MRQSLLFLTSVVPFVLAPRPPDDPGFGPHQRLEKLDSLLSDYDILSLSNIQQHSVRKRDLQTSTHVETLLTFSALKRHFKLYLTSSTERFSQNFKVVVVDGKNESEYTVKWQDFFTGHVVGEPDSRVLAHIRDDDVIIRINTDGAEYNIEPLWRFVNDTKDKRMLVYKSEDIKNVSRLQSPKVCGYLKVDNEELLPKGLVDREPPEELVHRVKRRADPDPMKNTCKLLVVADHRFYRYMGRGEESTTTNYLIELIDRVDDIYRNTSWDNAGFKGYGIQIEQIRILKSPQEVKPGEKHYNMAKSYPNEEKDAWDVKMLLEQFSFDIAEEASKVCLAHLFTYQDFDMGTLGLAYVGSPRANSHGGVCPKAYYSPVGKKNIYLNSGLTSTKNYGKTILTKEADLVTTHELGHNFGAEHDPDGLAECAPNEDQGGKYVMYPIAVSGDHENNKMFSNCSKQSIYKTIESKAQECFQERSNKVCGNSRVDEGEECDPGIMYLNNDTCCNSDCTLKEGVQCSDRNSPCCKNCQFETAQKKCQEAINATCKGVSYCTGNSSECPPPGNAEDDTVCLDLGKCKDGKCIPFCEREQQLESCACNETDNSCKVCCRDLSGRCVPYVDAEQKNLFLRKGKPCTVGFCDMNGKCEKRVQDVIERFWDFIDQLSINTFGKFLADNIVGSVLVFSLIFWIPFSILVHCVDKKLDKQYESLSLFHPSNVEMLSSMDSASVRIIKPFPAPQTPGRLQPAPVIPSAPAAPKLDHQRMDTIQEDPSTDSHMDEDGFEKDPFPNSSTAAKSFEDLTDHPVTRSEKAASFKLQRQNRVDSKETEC

Compound	IC50 [1] [nM]	IC50 (Collagenase 3) [nM]	inhibition at 1 µM (THP-1 [2]) [%]	IC50 (Interstitial collagenase) [nM]	inhibition in vivo at 50 mg/kg (Mus musculus [3]) [%]	inhibition in vivo at 50 mg/kg (Mus musculus [4]) [%]	inhibition in vivo at 25 mg/kg (Mus musculus [5]) [%]	inhibition at 3 µM (THP-1 [6]) [%]	inhibition [7] [%]
CC#CCOc1ccc(S(=O)(=O)N2CCN(CC)CCC2C(=O)NO)cc1 (stereo not given)	37	17	57	285					
CC#CCOc1ccc(S(=O)(=O)N2CCN(C(=O)OC(C)(C)C)CCC2C(=O)NO)cc1 (stereo not given)					43	88			
CC#CCOc1ccc(S(=O)(=O)N2CCCNCC2C(=O)NO)cc1 (stereo not given)	11	225		576			4	43	
CC#CCOc1ccc(S(=O)(=O)N2CCN(C(=O)CC)CCC2C(=O)NO)cc1 (stereo not given)	19	20	63	207					
CC#CCOc1ccc(S(=O)(=O)N2CCCN(Cc3ccccc3)CC2C(=O)NO)cc1 (stereo not given)	61	52		212				41	
CC#CCOc1ccc(S(=O)(=O)N2CCN(C)CCC2C(=O)NO)cc1 (stereo not given)					39	32			
CC#CCOc1ccc(S(=O)(=O)N2CCCN(S(C)(=O)=O)CC2C(=O)NO)cc1 (stereo not given)	5	128					35	71	40
CC#CCOc1ccc(S(=O)(=O)N2CCCN(C(=O)CCCN(C)C)CC2C(=O)NO)cc1 (stereo not given)	75	395						33	19
CC#CCOc1ccc(S(=O)(=O)N2CCSCCC2C(=O)NO)cc1 (stereo not given)		11		171	41	70			
CC#CCOc1ccc(S(=O)(=O)N2CCCN(S(=O)(=O)CCC)CC2C(=O)NO)cc1 (stereo not given)	30	140		1140			0	74	
CC#CCOc1ccc(S(=O)(=O)N2CCN(C(=O)C(C)C)CCC2C(=O)NO)cc1 (stereo not given)	23	9		142				95	
CC#CCOc1ccc(S(=O)(=O)N2CCCN(C(=O)NCCCCCC)CC2C(=O)NO)cc1 (stereo not given)	14	307						36	34
CC#CCOc1ccc(S(=O)(=O)N2CCCN(C(=O)c3cccs3)CC2C(=O)NO)cc1 (stereo not given)	10	142						41	
